# US6475491B1, “Treatment of HIV and other viral infections using combinatorial therapy” (priority 1995, dated 2002)
# Entries after “also recorded” stand apart in the source; their conditions may differ. Like-named read-outs stand apart in the source and are kept apart here.
# Key:
# [1] = system: HIV-1IIIb
# Procedure: (§6) The results of these assays are analyzed using Chou and Talalay's combination method (Chou and Talalay, 1984, Adv. Enzyme Regul. 22:27-55) and ‘Dose-Effect Analysis with Microcomputers’ software (Chou and Chou, 1987, software and manual. p19-64. Elsevier Biosoft, Cambridge, UK) in order to obtain a Combination Index. Combination Index values <1 indicates synergy, values>1 indicate antagonism and values equal to 1 indicate additive effects.
# (§7) For this assay, 3×10^4 uninfected Molt4 cells are cocultivated with 3×10^3 H9/ LA1 or CEM/LA1 chronically infected cells per well in 24 well plates. Inhibitors are added on day 0, and the assay plates are re-fed on days 1 and 3 with growth medium containing the inhibitors. The assay is harvested on day 5. Antiviral activity is measured by several parameters: Western blot analysis of pelleted cells from treated cultures, RT levels, and p24 antigen levels in the supernatant.
# (§8) The combined drug effects are calculated by the multiple drug analysis method of Chou and Talalay (Chou and Talalay, 1984, Adv. Enzyme Regul. 22:27-55) and ‘Dose-Effect Analysis with Microcomputers’ software (Chou and Chou, 1987, software and manual. p19-64. Elsevier Biosoft, Cambridge, UK) using the equation: [formula]
# (§9) where CI is the combination index, (Dx)1 is the dose of drug 1 required to produce x percent effect alone, (D)1 is the dose of drug 1 required to produce the same x percent effect in combination with (D)2. The values of (Dx)2 and (D)2 are similarly derived from drug 2. The value of α is determined from the plot of the dose effect curve using the median effect equation:
# (§10) where fa is the fraction affected by dose D, fu is the uninfected fraction, Dm is the dose required for 50% effect and m is the slope of the dose-effect curve. […] If the agents are mutually exclusive α is 0. and if they are mutually nonexclusive, α is 1. […] CI values of <1 indicate synergy, values>1 indicate antagonism and values equal to 1 indicate additive effects.
# [2] = system: HIV-1IIIb; assay: Combination indices from in vitro HIV-1IIIb/CEM co-culture (Chou and Talalay)
# Procedure: as §6, §7, §8, §9, §10
# [3] = system: HIV-1LA1
# Procedure: (§1) The resulting reverse transcriptase (RT) activity in counts per minute was determined using the assay described, below, in Section 6.1.5. See, Reed, L. J. et al., 1938, Am. J. Hyg. 27: 493-497 for an explanation of TCID50 calculations.
# (§2) The micro-reverse transcriptase (RT) assay was adapted from Goff et al. (Goff, S. et al., 1981, J. Virol. 38:239-248) and Willey et al. (Willey, R. et al., 1988, J. Virol. 62:139-147). Supernatants from virus/cell cultures are adjusted to 1% Triton-X100. A 10 μl sample of supernatant was added to 50 μl of RT cocktail in a 96-well U-bottom microtitre plate and the samples incubated at 37° C. for 90 min. The RT cocktail contained 75 mM KCl, 2 mM dithiothreitol, 5 mM MgCl2, 5 μg/ml poly A (Pharmacia, cat. No. 27-4110-01), 0.25 units/ml oligo dT (Pharmacia, cat. No. 27-7858-01), 0.05% NP40, 50 mM Tris-HCl, pH 7.8, 0.5 μM non-radioactive dTTP, and 10 μCi/ml ^32P-dTTP (Amersham, cat. No. PB.10167).
# After the incubation period, 40 μl of reaction mixture was applied to a Schleicher and Schuell (S+S) NA45 membrane (or DE81 paper) saturated in 2×SSC buffer (0.3 M NaCl and […] sodium citrate) held in a S+S Minifold over one sheet of GB003 (S+S) filter paper, with partial vacuum applied. Each well of the minifold was washed four times with 200 μl 2×SSC, under full vacuum. The membrane was removed from the minifold and washed 2 more times in a pyrex dish with an excess of 2×SSC. Finally, the membrane was drained on absorbent paper, placed on Whatman #3 paper, covered with Saran wrap, and exposed to film overnight at −70° C.
# After 7 days of culture, cell-free supernatant was tested for the presence of RT activity as a measure of successful infection.
# [4] = system: HIV-1RF; assay: Cell fusion assay: syncytia formation, Molt4 cells with chronically infected CEM cells; format: cell-based; conditions: HIV-1RF infected CEM cells
# Excerpt: (§3) The results of several such experiments are presented herein.
# [5] = system: HIV-1SF2; assay: as above; format: cell-based; conditions: HIV-1SF2 infected CEM cells
# Excerpt: as §3
# [6] = system: HIV-1MN; assay: as above; format: cell-based; conditions: HIV-1MN infected CEM cells
# Excerpt: as §3
# [7] = system: HIV-1LA1; assay: Cell fusion assay: syncytia formation, uninfected Molt4 cells co-cultivated with chronically HIV-1 infected CEM cells; format: cell-based
# Procedure: A cell fusion assay may be utilized to test the peptides' ability to inhibit HIV-induced syncytia formation in vitro. Such an assay may comprise culturing uninfected CD-4^+ cells (such as Molt or CEM cells, for example) in the presence of chronically HIV-infected cells and a therapeutic agent to be assayed. For each combinational therapy, a range of concentrations may be tested. […] Standard conditions for culturing, well known to those of ordinary skill in the art, are used. After incubation for an appropriate period (24 hours at 37° C., for example) the culture is examined microscopically for the presence of multinucleated giant cells, which are indicative of cell fusion and syncytia formation.
# Approximately 7×10^4 Molt cells were incubated with 1×10^4CEM cells chronically infected with the HIV-1LA1 virus in 96-well plates (one-half area cluster plates; Costar, Cambridge, Mass.) in a final volume of 100 μl culture medium as previously described (Matthews, T. J. et al., 1987, Proc. Natl. Acad. Sci. USA 84: 5424-5428). Peptide inhibitors were added in a volume of 10 μl and the cell mixtures were incubated for 24 hr. at 37° C. At that time, multinucleated giant cells were estimated by microscopic examination at a 40×magnification which allowed visualization of the entire well in a single field.
# The initial screen for antiviral activity assayed peptides' ability to block syncytium formation induced by overnight co-cultivation of uninfected Molt4 cells with chronically HIV-1 infected CEM cells. […] For these experiments, CEM cells chronically infected with either HIV-1LA1, HIV-1MN, HIV-1RF, or HIV-1SF2 virus were cocultivated overnight with uninfected Molt 4 cells.
# [8] = system: HIV-2NIHZ; assay: Cell free virus infection assay, CEM cells, reverse transcriptase readout; format: cell-based; conditions: 25 TCID50 HIV-2NIHZ, 7 days
# Procedure: as §1, §2
# After the incubation period, 40 μl of reaction mixture was applied to a Schleicher and Schuell (S+S) NA45 membrane (or DE81 paper) saturated in 2×SSC buffer (0.3 M NaCl and […] sodium citrate) held in a S+S Minifold over one sheet of GB003 (S+S) filter paper, with partial vacuum applied. Each well of the minifold was washed four times with 200 μl 2×SSC, under full vacuum. […]
# [9] = system: HIV-2; assay: Cell fusion assay: HIV-2 mediated syncytia formation; format: cell-based; conditions: comparison HIV-1 / HIV-2, same cell type
# [10] = system: HIV-1/IIIb; format: cell-based; conditions: 5 h
# Excerpt: Anti-HIV assays: The antiviral assays performed were as those described, above, in Section 6.1. Assays utilized HIV-1/IIIb and/or HIV-2 NIHZ isolates. Purified peptides were used, unless otherwise noted in FIGS. 5A-5L.
# [11] = system: HIV-1LA1; conditions: control peptides; cited from earlier work
# [12] = Toxicity in in vitro studies and in animals
# Excerpt: The present invention provides the first reported use of such peptides in combination with another antiviral or any other therapeutic agent.
# [13] = system: CEM cells; assay: Cell proliferation and toxicity assay; format: cell-based
# Procedure: (§4) Cell proliferation and toxicity assay: Approximately 3.8×10^5 CEM cells for each peptide concentration were incubated for 3 days at 37° C. in T25 flasks. […] The concentrations of each peptide used were 0, 2.5, 10, and 40 μg/ml. Cell counts were taken at incubation times of 0, 24, 48, and 72 hours.
# (§5) Additionally, cells were incubated in the absence of either peptide.
# [14] = Cell proliferation and toxicity assay; format: cell-based; conditions: human, CEM cells
# Procedure: as §4, §5
# [15] = system: HIV-1; conditions: cited from earlier work
# [16] = system: HIV-1; conditions: cited from earlier work; remark: listed apart in the source
compound,measurement,setting,value
"Cc1c(O)cccc1C(=O)N[C@@H](CSc1ccccc1)[C@H](O)CN1C[C@H]2CCCC[C@H]2C[C@H]1C(=O)NC(C)(C)C [Nelfinavir, reference compound]",EC50,[1],0.00927 µg/mL
same,EC50,"[2]; Human immunodeficiency virus 1, read-out: Dm Drug #2 (dose required for 50% effect)",0.0609 µg/mL
Enfuvirtide,"IC50, inhibition of HIV-1 infection","[3]; 62 TCID50 HIV-1LA1, CEM cells, 7 days",about 3 ng/ml
same,"IC50, inhibition of RT production from infected cells","[3]; 247 TCID50 HIV-1LA1, CEM cells, 7 days",0.09 µg/mL
same,potency as HIV-1 inhibitor relative to HIV-2 inhibitor,"[3]; HIV-1LA1 vs HIV-2NIHZ, cell-free infection",two logs more potent
same,concentration affording complete protection against syncytium formation (lowest concentration used),[4],≤ 100 ng/mL
same,concentration affording complete protection against syncytium formation (lowest concentration used),[5],≤ 100 ng/mL
same,concentration affording complete protection against syncytium formation (lowest concentration used),[6],≤ 100 ng/mL
same,Dm T20 (dose required for 50% effect),[2]; experiment T20:3TC 1:1.5,158.87 ng/mL
same,Dm T20 (dose required for 50% effect),[2]; experiment T20:3TC 2:1,298.50 ng/mL
same,Dm T20 (dose required for 50% effect),[2]; experiment T20:Indinavir 10:1,298.50 ng/mL
same,Dm T20 (dose required for 50% effect),[2]; experiment T20:Nelfinavir 1.33:1,172.02 ng/mL
same,Dm T20 (dose required for 50% effect),[2]; experiment T20:Nelfinavir 5:1,298.50 ng/mL
same,Dm T20 (dose required for 50% effect),[2]; experiment T:20:AZT 1:10,298.50 ng/mL
same,selectivity as inhibitor of HIV-1-mediated over HIV-2 mediated cell fusion,[7],4 log
same,concentration affording complete protection against syncytium formation (lowest concentration tested),"[7]; HIVLA1 infected CEM cells, overnight co-cultivation",≤ 12.5 ng/mL
same,lowest effective inhibitory concentration completely blocking virus induced syncytia formation,"[7]; Molt4 + chronically infected CEM cells, 24 hr",1 to 10 ng/mL
same,peptide concentration blocking HIV-1-mediated syncytia formation,[7]; comparison HIV-1 / HIV-2,below 1 ng/ml
same,IC50 for HIV-2NIHZ,[8],much higher IC50
same,concentration failing to block HIV-2 mediated syncytia formation,[9],> 10 µg/mL
H-YTSLIHSLIEESQNQQEK-OH [Peptide T-4],"IC50, antiviral activity",[10],> 400 µg/mL
DP-180: control peptide incorporating the amino acid residues of DP-178 in a scrambled sequence (SSESFTLLEQWNNWKLQLAEQWLEQINEKHYLEDIS; Human immunodeficiency virus) [reference compound],concentration with no evidence of anti-fusogenic activity,[7]; high concentration tested,> 40 µg/mL
Ac-LQARILAVERYLKDQQQ-NH2 (N-terminus and C-terminus assumed) [DP-116],activity previously shown in the cell-free virus infection assay,[11],inactive; also recorded: ineffective as a HIV inhibitor; also recorded: negative for inhibition of HIV-1 infection
"Cc1cn([C@H]2C[C@H](N=[N+]=[N-])[C@@H](CO)O2)c(=O)[nH]c1=O [AZT, 3′-azido-2′,3′-dideoxythymidine]",EC50,[1],13.1 µg/mL
"Nc1ccn([C@@H]2CS[C@H](CO)O2)c(=O)n1 [Peptide 3TC, reference compound]",EC50,[1],0.0748 µg/mL
same,Dm Drug #2 (dose required for 50% effect),"[2]; experiments T20:3TC 2:1, T20:Nelfinavir 5:1",63.73 ng/mL
enfuvirtide,toxicity in in vitro studies and in animals,[12],non-toxic
same,non-cytotoxic peptide concentration relative to HIV inhibitory dose,[13],greater than 3 log
same,concentration non-cytotoxic to cells in culture (highest tested),"[13]; CEM cells, 3 days",> 40000 ng/mL
same,cytotoxic effects on cells in culture,"[13]; CEM cells, up to 40 μg/ml, 3 days",no cytotoxic effects
same,"viability at 0 h, 2.5 µg/mL","[14]; 2.5 μg/ml, 0 hours",98%
same,"viability at 24 h, 2.5 µg/mL","[14]; 2.5 μg/ml, 24 hours",93%
same,"viability at 48 h, 2.5 µg/mL","[14]; 2.5 μg/ml, 48 hours",96%
same,"viability at 72 h, 2.5 µg/mL","[14]; 2.5 μg/ml, 72 hours",96%
same,"viability at 0 h, 10 µg/mL","[14]; 10 μg/ml, 0 hours",98%
same,"viability at 24 h, 10 µg/mL","[14]; 10 μg/ml, 24 hours",97%
same,"viability at 48 h, 10 µg/mL","[14]; 10 μg/ml, 48 hours",98%
same,"viability at 72 h, 10 µg/mL","[14]; 10 μg/ml, 72 hours",98%
same,"viability at 0 h, 40 µg/mL","[14]; 40 μg/ml, 0 hours",98%
same,"viability at 24 h, 40 µg/mL","[14]; 40 μg/ml, 24 hours",97%
same,"viability at 48 h, 40 µg/mL","[14]; 40 μg/ml, 48 hours",95%
same,"viability at 72 h, 40 µg/mL","[14]; 40 μg/ml, 72 hours",97%
Ac-NNLLRAIEAQQHLLQLTVWGIKQLQARILAVERYLKDQ-NH2 [DP-107],toxicity in in vitro studies and in animals,[12],non-toxic
CC(C)c1nc(CN(C)C(=O)N[C@H](C(=O)N[C@@H](Cc2ccccc2)C[C@H](O)[C@H](Cc2ccccc2)NC(=O)OCc2cncs2)C(C)C)cs1 [ABT-538],CD4 lymphocyte counts,[15]; AIDS patients,rise substantially
same,plasma HIV-1 levels,[15]; AIDS patients,decrease exponentially
same,pharmacokinetic and safety profiles in vivo,"[15]; human, in vivo",favorable pharmokinetic and safety profiles
same,antiviral activity in vitro,[16],potent antiviral activity
CC(C)(C)NC(=O)[C@@H]1CN(Cc2cccnc2)CCN1C[C@@H](O)C[C@@H](Cc1ccccc1)C(=O)N[C@H]1c2ccccc2C[C@H]1O [Indinavir],EC50,[1],0.0276 µg/mL
